Results published in patent US20100137313A1 (ASTRAZENECA AB, priority 2008, published 2010).

Target: S. pneumoniae Topoisomerase IV ATPase (ParE) (Streptococcus pneumoniae serotype 4, UniProt Q59961)
Assay: S. pneumoniae Topoisomerase IV ATPase inhibition
Format: biochemical
Conditions: values marked * are an average of two or more data points; for inhibition at 13 µM: read-out: % Inh (13 μM) of S. pneumoniae Topoisomerase IV ATPase
Outline: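 Malachite green/ammonium molybdate phosphate detection, A650. 1.25 nM ParE, 160 μM ATP, sheared salmon sperm DNA 5 μg/ml, 20 mM Tris pH 8.0, 8.0 mM MgCl2. Controls: 2% DMSO = 0%, 20 μM EDTA = 100% inhibition; IC50 over 10 concentrations.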

Sequence of S. pneumoniae Topoisomerase IV ATPase (ParE) (Q59961 whole entry): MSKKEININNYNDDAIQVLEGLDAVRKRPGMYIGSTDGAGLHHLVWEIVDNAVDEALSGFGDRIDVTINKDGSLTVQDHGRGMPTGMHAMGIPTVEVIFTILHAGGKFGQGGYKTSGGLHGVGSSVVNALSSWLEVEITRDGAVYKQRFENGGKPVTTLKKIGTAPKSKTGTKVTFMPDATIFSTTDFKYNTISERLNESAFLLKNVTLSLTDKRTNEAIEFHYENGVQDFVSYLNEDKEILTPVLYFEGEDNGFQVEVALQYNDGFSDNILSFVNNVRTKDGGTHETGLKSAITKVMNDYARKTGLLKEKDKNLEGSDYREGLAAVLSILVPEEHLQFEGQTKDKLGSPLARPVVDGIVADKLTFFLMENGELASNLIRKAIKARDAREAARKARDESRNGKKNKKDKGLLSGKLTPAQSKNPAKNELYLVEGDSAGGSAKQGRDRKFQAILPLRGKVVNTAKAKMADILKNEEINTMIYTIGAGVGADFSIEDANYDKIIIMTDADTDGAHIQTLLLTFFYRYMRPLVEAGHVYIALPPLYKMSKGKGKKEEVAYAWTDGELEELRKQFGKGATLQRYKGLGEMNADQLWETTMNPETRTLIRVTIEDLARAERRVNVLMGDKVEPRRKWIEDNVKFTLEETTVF

| Compound | inhibition at 13 µM | % Inh (13 μM) of S. pneumoniae Topoisomerase IV ATPase (13 µM) |
| --- | --- | --- |
| COc1nc(OC)c(-c2cnc(Nc3ccc(F)c(Cl)c3)nc2-n2ccc(C(F)(F)F)n2)cc1C(=O)O [Example 1132, 5-(2-(3-chloro-4-fluorophenylamino)-4-(3-(trifluoromethyl)-1H-pyrazol-1-yl)pyrimidin-5-yl)-2,6-dimethoxynicotinic acid] | 100% |  |
| COCCOc1ncc(-c2cnc(Nc3ccc(F)c(Cl)c3)nc2-n2ccc(C(F)(F)F)n2)cc1C(=O)O [Example 1133, 5-(2-(3-chloro-4-fluorophenylamino)-4-(3-(trifluoromethyl)-1H-pyrazol-1-yl)pyrimidin-5-yl)-2-(2-methoxyethoxy)nicotinic acid] | 100% |  |
| Cc1cc(C(F)(F)F)nn1-c1nc(Nc2ccc(F)c(Cl)c2)ncc1-c1cnc(OCCO)c(C(=O)O)c1 [Example 1134, 5-(2-(3-chloro-4-fluorophenylamino)-4-(5-methyl-3-(trifluoromethyl)-1H-pyrazol-1-yl)pyrimidin-5-yl)-2-(2-hydroxyethoxy)nicotinic acid] | 100% |  |
| O=C(O)c1cc(-c2cnc(Nc3ccc(F)c(Cl)c3)nc2-n2ccc(C(F)(F)F)n2)cnc1OCC(F)(F)F [Example 1135, 5-(2-(3-chloro-4-fluorophenylamino)-4-(3-(trifluoromethyl)-1H-pyrazol-1-yl)pyrimidin-5-yl)-2-(2,2,2-trifluoroethoxy)nicotinic acid] | 100% |  |
| COc1cc(Nc2ncc(-c3cnc(OCCN4CCOCC4)c(C(=O)O)c3)c(-n3nc(C(F)(F)F)cc3C)n2)cc(OC)c1 [Example 1136, 5-(2-(3,5-dimethoxyphenylamino)-4-(5-methyl-3-(trifluoromethyl)-1H-pyrazol-1-yl)pyrimidin-5-yl)-2-(2-morpholinoethoxy)nicotinic acid] | 99% |  |
| O=C(O)Cn1nccc1-c1cnc(Nc2ccc(F)c(Cl)c2)nc1-n1ccc(C(F)(F)F)n1 [Example 1137, 2-(5-(2-(3-chloro-4-fluorophenylamino)-4-(3-(trifluoromethyl)-1H-pyrazol-1-yl)pyrimidin-5-yl)-1H-pyrazol-1-yl)acetic acid] | 100% |  |
| COc1ccc(C(=O)O)cc1-c1cnc(Nc2ccc(F)c(Cl)c2)nc1-n1ccc(C(F)(F)F)n1 [Example 1138, 3-(2-(3-chloro-4-fluorophenylamino)-4-(3-(trifluoromethyl)-1H-pyrazol-1-yl)pyrimidin-5-yl)-4-methoxybenzoic acid] |  | 94% |
| COc1c(C(=O)O)cccc1-c1cnc(Nc2ccc(F)c(Cl)c2)nc1-n1ccc(C(F)(F)F)n1 [Example 1139, 3-(2-(3-chloro-4-fluorophenylamino)-4-(3-(trifluoromethyl)-1H-pyrazol-1-yl)pyrimidin-5-yl)-2-methoxybenzoic acid] | 96% |  |
| O=C(O)c1cc(-c2cnc(Nc3ccc(F)c(Cl)c3)nc2-n2ccc(C(F)(F)F)n2)cnc1OCCN1CCOCC1 [Example 1140, 5-(2-(3-chloro-4-fluorophenylamino)-4-(3-(trifluoromethyl)-1H-pyrazol-1-yl)pyrimidin-5-yl)-2-(2-morpholinoethoxy)nicotinic acid] | 100% |  |
| Cc1cc(C(F)(F)F)nn1-c1nc(Nc2ccc(F)c(Cl)c2)ncc1-c1cnc(OCCN2CCOCC2)c(C(=O)O)c1 [Example 1141, 5-(2-(3-chloro-4-fluorophenylamino)-4-(5-methyl-3-(trifluoromethyl)-1H-pyrazol-1-yl)pyrimidin-5-yl)-2-(2-morpholinoethoxy)nicotinic acid] | 100% |  |
| COc1ncc(C(=O)O)cc1-c1cnc(Nc2cc(C)cc(C)c2)nc1-n1nc(C(F)(F)F)cc1C [Example 1142, 5-(2-(3,5-dimethylphenylamino)-4-(5-methyl-3-(trifluoromethyl)-1H-pyrazol-1-yl)pyrimidin-5-yl)-6-methoxynicotinic acid] | 100% |  |
| COc1cc(Nc2ncc(-c3cnc(OC)c(C(=O)O)c3)c(-n3ccc(C4CC4)n3)n2)cc(OC)c1 [Example 1143, 5-(4-(3-cyclopropyl-1H-pyrazol-1-yl)-2-(3,5-dimethoxyphenylamino)pyrimidin-5-yl)-2-methoxynicotinic acid] | 100% |  |
| COc1cc(Nc2ncc(-c3cnc(OC)c(C(=O)O)c3)c(-n3nc(C(F)(F)F)nc3C)n2)cc(OC)c1 [Example 1144, 5-(2-(3,5-dimethoxyphenylamino)-4-(5-methyl-3-(trifluoromethyl)-1H-1,2,4-triazol-1-yl)pyrimidin-5-yl)-2-methoxynicotinic acid] | 100% |  |
| Cc1cc(C)cc(Nc2ncc(-c3cc(C(=O)O)cnc3OCCN(C)C)c(-n3nc(C(F)(F)F)cc3C)n2)c1 [Example 1145, 6-(2-(dimethylamino)ethoxy)-5-(2-(3,5-dimethylphenylamino)-4-(5-methyl-3-(trifluoromethyl)-1H-pyrazol-1-yl)pyrimidin-5-yl)nicotinic acid] | 100% |  |
| O=C(NCCO)c1cccc(-c2cnc(Nc3ccc(F)c(Cl)c3)nc2-n2ccc(C(F)(F)F)n2)c1 [Example 1146, 3-(2-(3-chloro-4-fluorophenylamino)-4-(3-(trifluoromethyl)-1H-pyrazol-1-yl)pyrimidin-5-yl)-N-(2-hydroxyethyl)benzamide] | 100% |  |
| NC(=O)c1cccc(-c2cnc(Nc3ccc(F)c(Cl)c3)nc2-n2ccc(C(F)(F)F)n2)c1 [Example 1147, 3-(2-(3-chloro-4-fluorophenylamino)-4-(3-(trifluoromethyl)-1H-pyrazol-1-yl)pyrimidin-5-yl)benzamide] | 100% |  |
| CN(C)C(=O)c1cccc(-c2cnc(Nc3ccc(F)c(Cl)c3)nc2-n2ccc(C(F)(F)F)n2)c1 [Example 1148, 3-(2-(3-chloro-4-fluorophenylamino)-4-(3-(trifluoromethyl)-1H-pyrazol-1-yl)pyrimidin-5-yl)-N,N-dimethylbenzamide] | 24% |  |
| CON(C)C(=O)c1cccc(-c2cnc(Nc3ccc(F)c(Cl)c3)nc2-n2ccc(C(F)(F)F)n2)c1 [Example 1149, 3-(2-(3-chloro-4-fluorophenylamino)-4-(3-(trifluoromethyl)-1H-pyrazol-1-yl)pyrimidin-5-yl)-N-methoxy-N-methylbenzamide] | 100% |  |
| CC(=O)Nc1cc(C(=O)O)cc(-c2cnc(Nc3ccc(F)c(Cl)c3)nc2-n2ccc(C(F)(F)F)n2)c1 [Example 1150, 3-acetamido-5-(2-(3-chloro-4-fluorophenylamino)-4-(3-(trifluoromethyl)-1H-pyrazol-1-yl)pyrimidin-5-yl)benzoic acid] | 100% |  |
| O=C(c1cccc(-c2cnc(Nc3ccc(F)c(Cl)c3)nc2-n2ccc(C(F)(F)F)n2)c1)N1CCOCC1 [Example 1151, (3-(2-(3-chloro-4-fluorophenylamino)-4-(3-(trifluoromethyl)-1H-pyrazol-1-yl)pyrimidin-5-yl)phenyl)(morpholino)methanone] | 100% |  |
| COc1cc(Nc2ncc(-c3cnc(OC)c(C(=O)NS(C)(=O)=O)c3)c(-n3ccc(C4CC4)n3)n2)cc(OC)c1 [Example 1152, 5-(4-(3-cyclopropyl-1H-pyrazol-1-yl)-2-(3,5-dimethoxyphenylamino)pyrimidin-5-yl)-2-methoxy-N-(methylsulfonyl)nicotinamide] | 100% |  |
| COc1cc(Nc2ncc(-c3cnc(OC)c(C(=O)NS(C)(=O)=O)c3)c(-n3nc(C(F)(F)F)nc3C)n2)cc(OC)c1 [Example 1153, 5-(2-(3,5-dimethoxyphenylamino)-4-(5-methyl-3-(trifluoromethyl)-1H-1,2,4-triazol-1-yl)pyrimidin-5-yl)-2-methoxy-N-(methylsulfonyl)nicotinamide] | 100% |  |
| O=C(O)/C=C/c1cncc(-c2cnc(Nc3ccc(F)c(Cl)c3)nc2-n2ccc(C(F)(F)F)n2)c1 [Example 1156, (E)-3-(5-(2-(3-chloro-4-fluorophenylamino)-4-(3-(trifluoromethyl)-1H-pyrazol-1-yl)pyrimidin-5-yl)pyridin-3-yl)acrylic acid] | 88% |  |
| COCCn1cc(-c2cnc(Nc3cc(OC)cc(OC)c3)nc2-n2ccc(C(F)(F)F)n2)cc(C(=O)O)c1=O [Example 1159] | 100% |  |
| COCCn1cc(-c2cnc(Nc3cc(OC)cc(OC)c3)nc2-n2nc(C(F)(F)F)cc2C)cc(C(=O)O)c1=O [Example 1160, 5-(2-(3,5-dimethoxyphenylamino)-4-(5-methyl-3-(trifluoromethyl)-1H-pyrazol-1-yl)pyrimidin-5-yl)-1-(2-methoxyethyl)-2-oxo-1,2-dihydropyridine-3-carboxylic acid] | 100% |  |
| COCCn1cc(-c2cnc(Nc3cc(OC)cc(OC)c3)nc2-n2nc(C(F)(F)F)cc2C)cc(C(=O)NS(C)(=O)=O)c1=O [Example 1161, 5-(2-(3,5-dimethoxyphenylamino)-4-(5-methyl-3-(trifluoromethyl)-1H-pyrazol-1-yl)pyrimidin-5-yl)-1-(2-methoxyethyl)-N-(methylsulfonyl)-2-oxo-1,2-dihydropyridine-3-carboxamide] | 81% |  |
| CCS(=O)(=O)NC(=O)c1cc(-c2cnc(Nc3cc(OC)cc(OC)c3)nc2-n2nc(C(F)(F)F)cc2C)cn(CCOC)c1=O [Example 1162, 5-(2-(3,5-dimethoxyphenylamino)-4-(5-methyl-3-(trifluoromethyl)-1H-pyrazol-1-yl)pyrimidin-5-yl)-N-(ethylsulfonyl)-1-(2-methoxyethyl)-2-oxo-1,2-dihydropyridiine-3-carboxamide] | 100% |  |
| COCCn1cc(-c2cnc(Nc3cc(OC)cc(OC)c3)nc2-n2ccc(C(F)(F)F)n2)cc(C(=O)NS(C)(=O)=O)c1=O [Example 1163, 5-(2-(3,5-dimethoxyphenylamino)-4-(3-(trifluoromethyl)-1H-pyrazol-1-yl)pyrimidin-5-yl)-1-(2-methoxyethyl)-N-(methylsulfonyl)-2-oxo-1,2-dihydropyridine-3-carboxamide] | 100% |  |
| CCS(=O)(=O)NC(=O)c1cc(-c2cnc(Nc3cc(OC)cc(OC)c3)nc2-n2ccc(C(F)(F)F)n2)cn(CCOC)c1=O [Example 1164] | 100% |  |
